Experimental data taken from US9090629B2, “Cytotoxic agents comprising new ansamitocin derivatives” (ImmunoGen, Inc., priority 2010, dated 2015).
Where two headings read alike, the source gives them in different places.

Key:
COLO 205 cell line = assay: in-vitro activity of ansamitocin derivatives; format: cell-based, human; settings: 96 hour exposure; read-out: IC50 against COLO 205 cell line
Protocol: (§1) All reagents were purchased from the Aldrich Chemical Co., New Jersey, or other commercial sources. Maytansinol (11) was prepared as described previously (U.S. Pat. No. 6,333,410). Nuclear Magnetic Resonance (^1H NMR) spectra were acquired on a Bruker 400 MHz instrument and mass spectra were acquired on a Bruker Daltonics Esquire 3000 instrument using electrospray ionization. In vitro cytotoxicity assays are performed as previously described (see U.S. Pat. No. 7,276,497 and W. C. Widdison et al., J. Med. Chem., 2006, 49, 4392-4408).
(§2) The KB (ATCC CCl-17) cell line is of human epithelial origin. The SK-BR-3 (ATCC HTB-30) cell line was established from a human breast adenocarcinoma. The human colon tumor cell lines COLO 205 (ATCC CCL-222) and HT-29 (ATCC HTB 38), the human melanoma cell line A-375 (ATCC CRL 1619), the human Burkitts lymphoma cell line Ramos (ATCC CRL-1596) and the human myeloid leukemia cell line HL-60 (ATCC CCL-240) were all obtained from ATCC, Maryland. Cell lines were grown in Dulbecco's modified Eagles Medium (DMEM, Biowhittaker, Walkersville, Md.) with L-glutamine supplemented with 10% fetal bovine serum (Hyclone, Logan, Utah) and 50 μg/mL gentamycin sulfate (Life Technologies, Rockville, Md.). Cells were maintained at 36-37.5° C. in a humidified atmosphere that contained 6% CO2.

KB cell line = assay: in-vitro activity of ansamitocin derivatives; format: cell-based, human
Text: The in vitro cytotoxicity of ansamitocin derivatives of the present invention can be measured by methods previously disclosed (U.S. Pat. No. 7,276,497 and Widdison et al., J. Med. Chem., 49; 4392, 2006, both expressly incorporated herein by reference). For example, cell lines such as the human breast carcinoma line SK-Br-3, or the human epidermoid carcinoma cell line KB, can be used for the assessment of cytotoxicity of these new ansamitocin derivatives. Cells to be evaluated are exposed to the compounds for 72 hours and the surviving fractions of cells measured in direct assays by known methods. IC50 values are calculated from the results of the assays.
as §1
The KB (ATCC CCl-17) cell line is of human epithelial origin. The SK-BR-3 (ATCC HTB-30) cell line was established from a human breast adenocarcinoma. […]

KB cells [1] = assay: clonogenic in vitro cytotoxicity assay; format: cell-based, human; settings: 72 hours incubation
Protocol: as §2
(§3) The cytotoxicity study was performed using a clonogenic assay. The test cell lines (KB and SK-Br-3) were plated into 6-well culture dishes at a constant number of 1000 cells per well. Cells were incubated with varying concentrations (0 to 3 nM) of the various ansamitocins or maytansine for 72 hours. The medium was then aspirated from the plates and replaced with fresh medium. Cultures were allowed to grow, and form colonies, for a total of 7-10 days after plating. The cultures were then fixed and stained with 0.2% crystal violet in 10% formalin/PBS and colonies were counted. Plating efficiency of non-treated cells (medium alone) was determined by dividing the number of colonies counted by the number of cells plated. Surviving fraction of cells exposed to the drugs was determined by dividing the number of colonies in wells that were exposed to the drug by the number of colonies in the control wells.

KB cells [2] = settings: literature report, cited from earlier work
COLO 205-MDR cell line = assay: in-vitro activity of ansamitocin derivatives; format: cell-based, human; settings: 96 hour exposure; read-out: IC50 against COLO 205-MDR cell line
Protocol: as §1

SK-Br-3 cells = assay: clonogenic in vitro cytotoxicity assay; format: cell-based, human; settings: for IC50: read-out: IC50 towards SK-Br-3 cells
Protocol: as §2, §3

[3] = system: L1210 mouse leukemia system; settings: literature report; cited from earlier work
L1210 cells = L1210 cells treated in vivo; untreated control 3.2 to 5.8%; cited from earlier work
[4] = system: human acute lymphoblastic leukemia line CEM; settings: literature report; cited from earlier work
[5] = system: human nasopharyngeal carcinoma cells; settings: literature report; cited from earlier work

`COc1cc2cc(c1Cl)N(C)C(=O)C[C@H](OC(=O)CCCCCSSC)[C@]1(C)O[C@H]1[C@H](C)[C@@H]1C[C@@](O)(NC(=O)O1)[C@H](OC)/C=C/C=C(\C)C2` [compound 54, 6-(methyldithio)hexanoic acid ester of maytansinol] gave an IC50 (COLO 205 cell line) of 0.31 nM.

In the case of `COc1cc2cc(c1Cl)N(C)C(=O)CC(OC(=O)CCCCC(=O)O)C1(C)OC1C(C)C1CC(O)(NC(=O)O1)C(OC)C=CC=C(C)C2` (stereo not drawn) [14b, Hexanedioic Acid Ester of Maytansinol], the “fold reduction in activity compared to the TMS-protected precursor 14a” value (KB cell line; KB cell line) is reported as 15 fold.

In the case of `CCC(=O)O[C@H]1CC(=O)N(C)c2cc(cc(OC)c2Cl)C/C(C)=C/C=C/[C@@H](OC)[C@@]2(O)C[C@H](OC(=O)N2)[C@@H](C)[C@@H]2O[C@@]12C` [ansamitocin bearing a C3 propionyl ester], the “fold more potent than maytansine towards KB cells” value (KB cells [1]) is listed as 1.3 fold and the “fold less potent than maytansine (Kupchan et al.)” value (KB cells [2]; KB cells) is listed as “about 34.4 fold”.

For `COc1cc2cc(c1Cl)N(C)C(=O)C[C@H](OC(=O)CCCCC(=O)OCC[Si](C)(C)C)[C@]1(C)O[C@H]1[C@H](C)[C@@H]1C[C@@](O)(NC(=O)O1)[C@H](OC)/C=C/C=C(\C)C2` [14a], the IC50 (COLO 205-MDR cell line) was 4.8 nM and the IC50 (COLO 205 cell line) was 0.4 nM.

Molecule `COc1cc2cc(c1Cl)N(C)C(=O)C[C@H](OC(=O)CCCN(C)C)[C@]1(C)O[C@H]1[C@H](C)[C@@H]1C[C@@](O)(NC(=O)O1)[C@H](OC)/C=C/C=C(\C)C2` [compound 66, Dimethylamino Butyric Acid Ester of Maytansinol] has an IC50 (KB cell line; 96 hour exposure, read-out: IC50 against the KB cell line) of 11 to 12 nM, an IC50 (COLO 205-MDR cell line) greater than 20 nM and an IC50 (COLO 205 cell line) of 11 to 12 nM.

For `COc1cc2cc(c1Cl)N(C)C(=O)C[C@H](OC(=O)[C@H](C)N(C)C(C)=O)[C@]1(C)O[C@H]1[C@H](C)[C@@H]1C[C@@](O)(NC(=O)O1)[C@H](OC)/C=C/C=C(\C)C2` [maytansine, N-acetyl-N-methyl-L-alanyl ester of maytansinol], the IC50 (SK-Br-3 cells; Homo sapiens, SK-BR-3, 72 hours incubation) is given as 0.034 nM, the “IC50 towards cancer cells (Kupchan et al.)” value (KB cells [2]) is given as 0.0000061 micrograms/mL and the “inhibitory activity in vivo” value [3] is given as “significant inhibitory activity”. For the same molecule, the “cells accumulating in mitosis” value (L1210 cells) was 67%, the “inhibitory concentration, CEM line” value [4] was ≥ 10^−7 mg/ml and the “inhibition of in vitro growth of human nasopharyngeal carcinoma cells” value [5] was “active inhibitor”.

`COc1cc2cc(c1Cl)N(C)C(=O)C[C@H](OC(=O)c1ccc(CSSC)cc1)[C@]1(C)O[C@H]1[C@H](C)[C@@H]1C[C@@](O)(NC(=O)O1)[C@H](OC)/C=C/C=C(\C)C2` [compound 59, 4-((methyldisulfanyl)methyl)benzoic acid ester of maytansinol] showed an IC50 (COLO 205 cell line) of 0.53 nM.

In the case of `CCCCC(=O)O[C@H]1CC(=O)N(C)c2cc(cc(OC)c2Cl)C/C(C)=C/C=C/[C@@H](OC)[C@@]2(O)C[C@H](OC(=O)N2)[C@@H](C)[C@@H]2O[C@@]12C` [ansamitocin P4′], the “fold more potent than maytansine towards SK-Br-3 cells” value (SK-Br-3 cells; 72 hours incubation) is reported as 17 fold and the IC50 (SK-Br-3 cells; 72 hours incubation) is reported as 0.002 nM.
